Values of other authors in US20070009938A1, “Minimalist bZIP derivatives that bind to noncanonical gene regulatory sequences” (priority 2005, published 2007).

How the values were obtained:
[1] = test system: AP-1 site; details: previously shown, Lajmi et al. 2000
[2] = test system: CRE (ATF/CREB) site; details: previously shown, Lajmi et al. 2000

| binding to AP-1 site, DNase I footprinting [1] | binding to CRE (ATF/CREB) site, DNase I footprinting [2] | Substance |
| --- | --- | --- |
| bind | bind | 18A: alanine-rich derivative of wt bZIP; 24 of the 27 basic-region residues are alanine (SEQ ID NO:5) (AAAAAAAAANAAAAAAARAAKAAAAAA; basic region 18A bZIP mutant peptide) |
| bind | bind | 11A: alanine-rich derivative of wt bZIP with eleven Ala substitutions in the basic region, also mutated in the hinge (SEQ ID NO:4) (ARAAAARARNTAAARRSRAAKAAAAAA; basic region 11A bZIP mutant peptide) |
| bind | bind | 4A: alanine-rich derivative of wt bZIP with four Ala substitutions in the GCN4 basic region (SEQ ID NO:3) (ARAAAARARNTAAARRSRARKLQRMKQ; basic region 4A bZIP mutant peptide) |
